Laboratory results published in patent publication EP0229011A1, “Trisubstituted triazoles” (CIBA-GEIGY AG, priority 1986, dated 1987).

What was measured:
[1] = tested on: experimentellen Strychninkrampf; test: Protection against experimental strychnine convulsions; type: in vivo, Maus; details: Mus musculus, po, read-out: ED₅₀
Excerpt: (§1) Die neuen Verbindungen besitzen wertvolle pharmakologische Eigenschaften, insbesondere eine ausgeprägte antikonvulsive Wirksamkeit mit neuartigem Wirkungsspektrum. Die ausgezeichnete antikonvulsive Wirksamkeit der erfindungsgemäss bereitgestellten Verbindungen zeigt sich insbesondere an Primaten. […] Das neuartige Wirkungsspektrum der erfindungsgemässen Verbindungen kann beispielsweise durch ihr Verhalten in den nachstehenden pharmakologischen und biochemischen Epilepsiemodellen charakterisiert werden: • 1) Schutzwirkung gegen Elektroschock-induzierte Konvulsionen (Maus, Ratte): deutliche Aktivität in Dosen ab etwa 30 mg/kg p.o., für z.B. 5-Amino-1-(4-hexyl)-1M-1,2,3-triazol-4-carboxamid ED₅₀ = 100 mg/kg p.o. (Maus) bzw. […] Wirkung auf die GABA-Neuro-transmission und kein nachweisbarer Einfluss auf den GABA-Kata-bolismus; • 6) Kindling-Epilepsiemodell (Ratte): die Entwicklung sowohl der Nachentladung als auch der Symptomatologie wird stark verlangsamt.

[2] = tested on: Metrazol-Antagonismus; test: Metrazol antagonism in the mouse; type: in vivo; details: po, Maus, read-out: ED₅₀
Excerpt: as §1

[3] = tested on: Elektroschock-induzierte Konvulsionen; test: Protection against electroshock-induced convulsions (rat); type: in vivo; details: po, Ratte, read-out: ED₅₀
Excerpt: as §1

[4] = tested on: Elektroschock-induzierte Konvulsionen; test: Protection against electroshock-induced convulsions (mouse); type: in vivo; details: po, Maus, read-out: ED₅₀
Excerpt: as §1

[5] = tested on: Picrotoxin-induzierte Konvulsionen; test: Protection against picrotoxin-induced convulsions; type: in vivo; details: Maus, doses up to and including 300 mg/kg p.o.
Excerpt: as §1

[6] = tested on: durch Aluminiumoxidimplantation erzeugten fokalen Konvulsionen; test: Focal convulsions produced by aluminium oxide implantation in the rhesus monkey; type: in vivo, Rhesusaffen; details: daily doses of 50 mg/kg p.o., over the whole 15-day treatment
Excerpt: as §1

| SMILES | ED50 [1] [mg/kg] | ED50 [2] [mg/kg] | ED50 [3] [mg/kg] | ED50 [4] [mg/kg] | Schutzwirkung gegen Picrotoxin-induzierte Konvulsionen [5] | Anzahl der fokalen Konvulsionen [6] | Intensität der fokalen Konvulsionen [6] |
| --- | --- | --- | --- | --- | --- | --- | --- |
| CCCC(CC)n1nnc(C(N)=O)c1N (stereo not shown) [5-Amino-1-(4-hexyl)-1H-1,2,3-triazol-4-carboxamid] | 300 | 210 | 50 | 100 | keine Wirkung feststellbar |  |  |
| CCCC(CCC)n1nnc(C(N)=O)c1N [Beispiel 1, 5-Amino-1-(4-heptyl)-1H-1,2,3-triazol-4-carboxamid] |  |  |  |  |  | starke Abnahme | starke Abnahme |
